Assay results as given in PubChem BioAssay (NCI).
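Five concentrations, 48 hours, 96-well plates. GI50 marks 50% less growth. At the TGI there is no net growth.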

Legend:
Test in all cases: NCI tumour cell line growth inhibition, 48 h
[1] = test system: HCT-15 colon
[2] = test system: MDA-MB-231 breast
[3] = test system: M14 melanoma
[4] = test system: UO-31 renal
[5] = test system: SNB-19 CNS
[6] = test system: DU-145 prostate
[7] = test system: NCI-H23 lung
[8] = test system: EKVX NSCLC
[9] = test system: K-562 leukemia
[10] = test system: OVCAR-8 ovarian

| Structure (SMILES) | GI50 [1] [µM] | TGI [1] [µM] | GI50 [2] [µM] | TGI [2] [µM] | GI50 [3] [µM] | TGI [3] [µM] | GI50 [4] [µM] | TGI [4] [µM] | GI50 [5] [µM] | TGI [5] [µM] | GI50 [6] [µM] | TGI [6] [µM] | GI50 [7] [µM] | TGI [7] [µM] | GI50 [8] [µM] | TGI [8] [µM] | GI50 [9] [µM] | GI50 [10] [µM] | TGI [10] [µM] | TGI [9] [µM] |
| --- | --- | --- | --- | --- | --- | --- | --- | --- | --- | --- | --- | --- | --- | --- | --- | --- | --- | --- | --- | --- |
| CCN(CC)CCOc1ccc(Nc2ncc3cc(-c4ccc(O)cc4)c(=O)n(C)c3n2)cc1 | 0.191 | 1.75 | 1.17 | 7.36 | 1.27 | 7.12 | 0.0396 | 1.6 | 8.57 | 27.5 | 12.9 | 26.3 | 12.7 | 36.2 | 15.1 | 37.5 | 0.039 | 3.72 | 15.2 |  |
| Cc1ccccc1C(=O)C#Cc1cn(C2CC(O)C(CO)O2)c(=O)[nH]c1=O (centres undefined) |  | > 100 |  | > 100 |  | > 100 |  | > 100 |  | > 100 |  | > 100 |  | > 100 |  | > 100 |  |  | > 100 | > 100 |
| CCN1C(=O)N(CC)C2C1NN=c1s/c(=C3\C(=O)N(CC(C)C)c4ccccc43)c(=O)n12 (centres undefined) | 0.438 | > 100 | 2.05 | > 30.6 | 0.445 | > 100 | 0.869 | > 100 | 1.89 | 39.2 | 0.777 | > 30.4 | 2.19 | > 100 | 1.56 | > 100 | 0.429 | 1.33 | > 100 | > 100 |
| CCOC(=O)CCCn1c(SC)nc2cc(-c3ccco3)[nH]c2c1=O | > 100 | > 100 | 28 | 81.2 | > 100 | > 100 | 72.6 | > 100 | 19.8 | 65.6 | > 100 | > 100 | 90.5 | > 100 | 65.9 | > 100 | > 100 | 31.1 | > 100 | > 100 |
| Nc1ccc(C(=O)c2ccc(N)c(Br)c2)cc1Br | 0.466 | > 100 | 0.772 | > 47.1 | 0.32 | 72.5 | 0.734 | 34 | 0.637 | > 100 | 0.334 | 1.58 | 1.16 | > 100 | 0.536 | > 100 | 0.271 | 0.518 | 46.1 | 22.2 |
| COc1ccc(CNc2nc3cc(N)cc(N)c3nc2-c2ccccc2)cc1OC | 28 | > 94.1 | 4.27 | 10.6 | 8.56 | 15.6 | 15 | 40.7 | 20.1 | > 61 | 41 | > 93.6 | 16.9 | 35.7 | 13 | 44.6 | 10.9 | 10.5 | 32.1 | > 100 |
| N#CC1=C(N)NC(=S)NC12Nc1ccccc1O2 (centres undefined) | 21.6 | > 100 | 19.3 | 76.7 | 26 | > 100 | 25.4 | > 100 | 23.9 | > 100 | 55.1 | > 100 | 20.4 | 69.7 | 62.3 | > 100 | 13.7 | 46.2 | > 100 | > 100 |
| COc1ccccc1C1=C2C(=O)N(C)C(c3ccccc3OC)=C2C(=O)N1C |  | > 100 |  | > 100 |  | > 100 |  | > 100 |  | 75.4 |  | > 100 |  | > 100 |  | > 100 |  |  | > 100 | > 100 |
| COC(=O)COc1ccc(/C=C2\N=C(c3ccccc3)N(c3cc(C(F)(F)F)ccc3Cl)C2=O)cc1 | 94.6 | > 100 | > 100 | > 100 | 50.6 | > 100 | 27.1 | > 100 | 83.8 | > 100 | 51.5 | > 100 | > 100 | > 100 | > 100 | > 100 | 47.3 | 40.4 | > 100 | > 100 |
| NCCCC(=O)Nc1ccncc1 | > 100 | > 100 | > 100 | > 100 | > 100 | > 100 | > 100 | > 100 | > 100 | > 100 | > 100 | > 100 | > 100 | > 100 | > 100 | > 100 | > 100 | > 100 | > 100 | > 100 |
| C/C=C(\C)C(=O)N[C@H]1[C@@H](OC(C)=O)C[C@]2(C)C3CC[C@@]4(C)C(CC[C@@H]4C(C)N(C)C)C3CCC2[C@H]1O (some centres undefined) | 1.46 | 4.22 | 3.23 | 10.7 | 2.02 | 3.72 | 3.16 | 15.2 | 13.6 | 28.9 | 6.4 | 21.3 | 11.7 | 28.2 | 5.63 | 31.4 | 1.32 | 11.2 | 43.4 | 5.02 |
| Cn1ccc2c(NCCN)c3c(c(NCCN)c21)C(=O)c1ccccc1C3=O | 2.8 | > 32 | 0.619 | 2.38 | 2.32 | 8.68 | 1.52 | 5.76 | 20.5 | 47.2 | 0.453 | 6.05 | 1.68 | 4.07 | 1.34 | 5.3 | 0.589 | 2.84 | 13.4 | 83.6 |
